This series can be described thus: In vitro kinetics of release of aromatic molecules in water (test A samples). Particulars: water 37° C., pH 6.5, 5 mm capsule of Example 3; for Total concentration of aromatic molecules over all samples: Total 0-70 seconds. It counts as physicochemical. As for the experimental part:
A 5 mm capsule, the composition of which is given in Table 5, is analyzed according to test A.
The taking of various samples makes it possible to establish the in vitro kinetics of release of aromatic molecules in water at 37° C.+/−1° C. and at pH 6.5. Table 6 indicates the concentration of aromatic molecules of various samples.
It may be noted that most of the molecules are released within 40 s, at most within 70 s.

Consider `CC1CCC(C(C)C)C(O)C1` (centres unmarked) [Menthol], for which the “Total concentration of aromatic molecules over all samples” value came to 399 ppm. Besides, the “concentration of aromatic molecules of sample” value (“concentration … of sample” below) (time 0-5 seconds) is 47 ppm. For the same compound, the “concentration … of sample” value (time 5-10 seconds) is reported as 67 ppm. For the same compound, the “concentration … of sample” value (time 10-15 seconds) was 63 ppm. The “concentration … of sample” value (time 15-20 seconds) turned out to be 90 ppm. Further, the “concentration … of sample” value (time 20-30 seconds) stood at 62 ppm. In addition, the “concentration … of sample” value (time 30-40 seconds) is listed as 24 ppm. In addition, the “concentration … of sample” value (time 40-50 seconds) was found to be 24 ppm. For the same compound, the “concentration … of sample” value (time 50-60 seconds) stood at 16 ppm. Moreover, where the note is “time 60-70 seconds”, the “concentration … of sample” value came to 6 ppm.
For `Cc1ccc(C(C)C)c(O)c1` [Thymol], the “Total concentration of aromatic molecules over all samples” value was 139 ppm. Moreover, the “concentration … of sample” value (time 0-5 seconds) was 19 ppm. Also, where the note is “time 5-10 seconds”, the “concentration … of sample” value was 28 ppm. Also, the “concentration … of sample” value (time 10-15 seconds) is 22 ppm. In addition, where the note is “time 15-20 seconds”, the “concentration … of sample” value worked out at 31 ppm. In addition, the “concentration … of sample” value (time 20-30 seconds) was found to be 20 ppm. Besides, the “concentration … of sample” value (time 30-40 seconds) is 7 ppm. For the same compound, for the setting “time 40-50 seconds”, the “concentration … of sample” value is listed as 7 ppm. In addition, under “time 50-60 seconds”, the “concentration … of sample” value stood at 4 ppm. The “concentration … of sample” value (time 60-70 seconds) is on record as 1 ppm.

The record behind these values is patent US7754239B2, “Capsule for rapid solubilization and release of the content” (V. Mane Fils S.A., priority 2001, dated 2010).
